The values that follow come from patent publication US5593970A, “Heterocyclic anthracycline analogs” (priority 1994, dated 1997).

Read-outs that look alike come from different tables or passages of the source.

Common to all, as to assay: Microculture tetrazolium assay
Holding throughout (type): cell-based

The test system of one experiment is SKVLB. Conditions: for VLB/OV3: IC50 ratio SKVLB/SKOV3; for IC50: SKVLB, read-out: IC50.
The next experiment has as its system LOX. To be noted: read-out: IC50.
For a further experiment, the system named is HT29. To be noted: Homo sapiens, HT-29, HT29.
The subject of a further experiment is SKOV3. To be noted: Homo sapiens, SK-OV-3, SKOV3; read-out: IC50.
A further experiment relates to T47D. To be noted: Homo sapiens, read-out: IC50.

For `CC(=O)O[C@@H]1[C@H](C)O[C@@H](O[C@@H]2O[C@@H](C(C)=O)CC3=C2C(=O)c2cc4ccccc4c(O)c2C3=O)C[C@@H]1OC(C)=O` [BCH-1166, (1'S,1S,3R)-methyl-(6-hydroxy-1-(2',3',4',6'-tetradeoxy-3',4'-diacetyl-L-lyxohexopyranose)-5,12-dioxo-3,4,5,12-tetrahydroanthraceno-[2,3-c]pyran-3-yl) ketone], the VLB/OV3 in the experiment with SKVLB worked out at 2.08. Further, the 50% inhibitory concentration (IC50) in the experiment with SKVLB came out at 50.8 µM; in the experiment on LOX, 30.5 µM; with HT29 (read-out: IC50) it was 12.5 µM; with SKOV3 it was 24.4 µM; with T47D it was 31.4 µM.

As to `CC(=O)C1CC2=C(C(=O)c3cc4ccccc4c(O)c3C2=O)C(O)S1` (stereo not drawn) [BCH-1167, Trans-3-aceto-1,6-hydroxy-1,2,3,4,5,12-hexahydro-2-(sulfur)naphthacene-5,12-dione and cis-3-aceto-1,6-hydroxy-1,2,3,4,5,12-hexahydro-2-(sulfur)naphthacene-5,12-dione], the IC50 with SKVLB, in the experiment with LOX, with HT29 (read-out: IC50), in the experiment on SKOV3 and in the experiment on T47D was greater than 100 µM in each case.

Turning to `C=CC1CC2=C(C(=O)c3cc4ccccc4c(O)c3C2=O)C(O[C@H]2C[C@H](NC(=O)C(F)(F)F)[C@H](O)[C@H](C)O2)O1` (stereo partly shown) [BCH-1168], the VLB/OV3 in the experiment with SKVLB is listed as 1.07. In addition, the concentration for half-maximal inhibition (IC50) in the experiment on SKVLB was 94.2 µM; in the experiment with LOX, 100 µM; in the experiment with HT29 (read-out: IC50), 100 µM; with SKOV3, 88 µM; in the experiment on T47D it was 84.4 µM.

Consider `C[C@@H]1O[C@@H](O[C@H]2O[C@H](C(=O)CO)CC3=C2C(=O)c2cc4ccccc4c(O)c2C3=O)C[C@H](NC(=O)C(F)(F)F)[C@@H]1O` [BCH-1175, (1', S,1R,3S)-1,2,3,4,5,12-hexahydro-6-hydroxy-3-hydroxy-aceto-1-N-trifluoroacetyl-L-daunosamine-(2-oxo) naphthacene-5, 12-dione], for which the IC50 with SKVLB, in the experiment with LOX, in the experiment on HT29 (read-out: IC50), in the experiment on SKOV3 and with T47D was greater than 100 µM in each case.

`CC(=O)OCC1([C@@H]2CC3=C(C(=O)c4c(cc5ccccc5c4OC(C)=O)C3=O)[C@@H](O[C@H]3C[C@H](NC(=O)C(F)(F)F)[C@H](O)[C@H](C)O3)O2)OCCCO1` [BCH-1178]: the VLB/OV3 with SKVLB was determined as 1.85. In addition, the IC50 with SKVLB was 12.8 µM; in the experiment with LOX it was 12.3 µM; in the experiment with HT29, 5.64 µM; in the experiment with SKOV3, 6.93 µM; in the experiment on T47D it was 7.06 µM.

Consider `CC(=O)OCC1(C2CC3=C(C(=O)c4c(cc5ccccc5c4OC(C)=O)C3=O)C(O[C@H]3C[C@H](NC(=O)C(F)(F)F)[C@H](O)[C@H](C)O3)O2)OCCCO1` (stereo partly shown) [BCH-1179], for which the VLB/OV3 with SKVLB is on record as 1.58. Moreover, the half-inhibitory concentration (IC50) in the experiment with SKVLB was 8.31 µM; in the experiment with LOX it was 10.9 µM; in the experiment on HT29 (read-out: IC50), 4.03 µM; in the experiment with SKOV3, 5.25 µM; in the experiment with T47D it was 4.9 µM.

Take `C[C@@H]1O[C@@H](O[C@@H]2O[C@@H](C(=O)CO)CC3=C2C(=O)c2cc4ccccc4c(O)c2C3=O)C[C@H](NC(=O)C(F)(F)F)[C@@H]1O` [BCH-1182, (1 'S,1S,3R)-1,2,3,4,5,12-hexahydro-6-hydroxy-3-hydroxy-aceto-1-N-trifluoroacetyl-L-daunosamine-(2-oxo) naphthacene-5,12-dione]: in the experiment on SKVLB, the VLB/OV3 is 3.12. The 50% inhibitory concentration (IC50) with SKVLB was 73.7 µM; in the experiment with LOX, 1.98 µM; in the experiment with HT29 (read-out: IC50) it was 25.4 µM; in the experiment on SKOV3, 23.6 µM; with T47D, 28.3 µM.

In the case of `C=CC1CC2=C(C(=O)c3cc4ccccc4c(O)c3C2=O)C(O[C@H]2C[C@H](N)[C@H](O)[C@H](C)O2)O1` (stereo partly shown) [BCH-1611], the VLB/OV3 in the experiment on SKVLB was found to be 3.87. Further, the 50% inhibitory concentration (IC50) with SKVLB was 7.32 µM; in the experiment with LOX it was 4.3 µM; in the experiment on HT29 (read-out: IC50) it was 2.81 µM; in the experiment with SKOV3 it was 1.89 µM; in the experiment on T47D, 2.16 µM.

The term IC50 denotes the concentration that gives 50% inhibition.
